According to US20220298115A1, “SMALL MOLECULE INHIBITORS OF ACETYL COENZYME A SYNTHETASE SHORT CHAIN 2 (ACSS2)” (Curadev Pharma Pvt. Ltd., priority 2019, published 2022):

Columns and labels:
human ACSS2 = target: T1, human ACSS2 (Homo sapiens, UniProt Q9NR19); assay: ACSS2 enzyme assay (acetyl-CoA formation, LC-MS/MS); type: biochemical; conditions: cytosolic fraction of BT474 cells as ACSS2 source; 100 μM acetate, CoA and ATP; 2 h at 25° C.; read-out: Enzyme Activity (IC50 range)
T1 construct: The cytosolic fraction of BT474 cells was used as a source of the ACSS2 enzyme; endogenous in cells; host or cells: BT474 cells (cytosolic fraction)
Outline: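 Enzyme source was BT474 cytosolic fraction (100 ng), preincubated 5 min with compound in 25 mM Tris-HCl pH7.4, 1 mM MgCl2, 1 mM DTT, 0.05% Tween20, 1% DMSO. Reaction started with 100 μM each of acetate, CoA and ATP, 2 h at 25 °C, stopped with TCA; acetyl-CoA quantified by LC-MS/MS.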

[1] = tested on: [14C] acetate incorporation in macromolecules, BT474 cells; assay: Cell based [14C] acetate incorporation assay; conditions: Homo sapiens, BT-474, 3 h at 37° C., read-out: Cellular Activity (IC50 range)
Outline: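 BT474 cells (4×10^4/well, plated overnight) were preincubated with compound for 10 min at 37°C in HBSS. They were then given 0.1 μCi [14C]acetate plus 10 μM unlabelled acetate (both in the added acetate solution) for 3 h at 37°C, 5% CO2. Label incorporated into macromolecules was harvested onto PEI-treated filters and counted by scintillation.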

T1 sequence (Q9NR19 whole entry): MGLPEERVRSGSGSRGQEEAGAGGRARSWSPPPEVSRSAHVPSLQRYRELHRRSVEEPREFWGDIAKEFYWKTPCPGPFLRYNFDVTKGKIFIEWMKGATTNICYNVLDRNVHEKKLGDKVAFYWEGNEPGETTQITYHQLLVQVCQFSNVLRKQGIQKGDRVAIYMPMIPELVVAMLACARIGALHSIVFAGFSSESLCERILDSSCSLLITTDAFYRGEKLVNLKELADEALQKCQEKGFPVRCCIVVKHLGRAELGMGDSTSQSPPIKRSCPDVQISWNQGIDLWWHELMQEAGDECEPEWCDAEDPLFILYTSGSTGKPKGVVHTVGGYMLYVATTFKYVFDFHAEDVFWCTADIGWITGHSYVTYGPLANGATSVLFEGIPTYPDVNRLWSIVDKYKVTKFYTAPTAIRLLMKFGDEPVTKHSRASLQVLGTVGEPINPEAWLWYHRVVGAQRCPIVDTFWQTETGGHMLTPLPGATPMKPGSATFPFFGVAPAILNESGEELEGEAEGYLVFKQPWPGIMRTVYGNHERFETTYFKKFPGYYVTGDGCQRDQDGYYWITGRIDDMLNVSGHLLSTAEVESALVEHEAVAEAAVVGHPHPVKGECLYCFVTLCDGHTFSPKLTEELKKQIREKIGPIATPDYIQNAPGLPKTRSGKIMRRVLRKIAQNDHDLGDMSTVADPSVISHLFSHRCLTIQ

| IC50 (human ACSS2) | IC50 [1] | Compound |
| --- | --- | --- |
| < 100 nM | < 100 nM | CCC(O)CNC(=O)Nc1ccc2nc(-c3cccnc3)c(-c3ccccc3F)cc2c1 (stereo not shown) [Example 31, 1-(3-(2-fluorophenyl)-2-(pyridin-3-yl)quinolin-6-yl)-3-(2-hydroxybutyl) urea] |
| < 100 nM | < 100 nM | COC1CCN(C(=O)Nc2ccc3nc(-c4ccccc4)c(-c4ccccc4)cc3c2)C1 (stereo not shown) [Example 138, N-(2,3-diphenylquinolin-6-yl)-3-methoxypyrrol-idine-1-carboxamide] |
| < 100 nM | < 100 nM | CCC(O)CNC(=O)Nc1ccc2nc(C)c(-c3ccccc3F)cc2c1 (stereo not shown) [Example 75, 1-(3-(2-fluorophenyl)-2-methylquinolin-6-yl)-3-(2-hydroxybutyl) urea] |
| ≤ 1000 nM | ≤ 1000 nM | CC[C@@H](O)CNC(=O)Nc1cc2cc(-c3ccccc3)c(-c3ccccc3)nc2cc1F [Example 90, (R)-1-(7-fluoro-2,3-diphenylquinolin-6-yl)-3-(2-hydroxybutyl) urea] |
| ≤ 1000 nM | ≤ 1000 nM | CCC(O)CNC(=O)Nc1ccc2nc(C3=CCCCC3)c(-c3ccccc3F)cc2c1 (stereo not shown) [Example 32, 1-(2-(cyclohex-1-en-1-yl)-3-(2-fluorophenyl)quinolin-6-yl)-3-(2-hydroxybutyl) urea] |
| < 100 nM | < 100 nM | CCC(O)CNC(=O)Nc1ccc2nc(-c3ccc(F)cc3)c(-c3ccccc3F)cc2c1 (stereo not shown) [Example 47, 1-(3-(2-fluorophenyl)-2-(4-fluorophenyl)quinolin-6-yl)-3-(2-hydroxybutyl) urea] |
| < 100 nM | < 100 nM | CCC(O)CNC(=O)Nc1ccc2nc(-c3ccccc3)c(-c3ccccc3)c(-c3ncco3)c2c1 (stereo not shown) [Example 97, 1-(2-hydroxybutyl)-3-(4-(oxazol-2-yl)-2,3-diphenylquinolin-6-yl)urea] |
| < 100 nM | < 100 nM | CCCCCC(=O)Nc1ccc2nc(-c3ccccc3OC)c(-c3ccccc3OC)cc2c1 [Example 119, N-(2,3-bis(2-methoxy-phenyl)quinolin-6-yl) hexanamide] |
| < 100 nM | < 100 nM | CC[C@@H](O)CNC(=O)Nc1ccc2nc(-c3ccccc3)c(-c3ccccc3)c(NC(=O)C3CC3)c2c1 [Example 92, (R)-N-(6-(3-(2-hydroxybutyl)ureido)-2,3-diphenylquinolin-4-yl)cyclopropane-carboxamide] |
| ≤ 10000 nM | > 10000 nM | CN1CCC(NC(=O)Nc2ccc3nc(-c4ccccc4)c(-c4ccccc4)cc3c2)C1 (stereo not shown) [Example 141, 1-(2,3-diphenylquinolin-6-yl)-3-(1-methylpyrrolidin-3-yl)urea] |
| < 100 nM | < 100 nM | CC[C@H](O)CNC(=O)Nc1ccc2nc(-c3ccccc3)c(-c3ccccc3)cc2c1 [Example 30, (S)-1-(2,3-diphenylquinolin-6-yl)-3-(2-hydroxybutyl) urea] |
| ≤ 1000 nM | ≤ 1000 nM | CCC(CNC(=O)Nc1ccc2nc(C)c(-c3ccccc3)cc2c1)NC(C)=O (stereo not shown) [Example 99, N-(1-(3-(2-methyl-3-phenylquinolin-6-yl)ureido)butan-2-yl)acetamide] |
| ≤ 1000 nM | ≤ 1000 nM | C=CCNC(=O)Nc1ccc2nc(-c3ccccc3)c(-c3ccccc3)cc2c1 [Example 134, 1-allyl-3-(2,3-diphenylquinolin-6-yl)urea] |
| < 100 nM | ≤ 1000 nM | CCC(O)CCC(=O)Nc1ccc2nc(C)c(-c3ccccc3)cc2c1 (stereo not shown) [Example 130, 4-hydroxy-N-(2-methyl-3-phenyl-quinolin-6-yl)hexan-amide] |
| > 10000 nM | > 10000 nM | O=C(Nc1ccccc1)Nc1ccc2nc(-c3ccccc3)c(-c3ccccc3)cc2c1 [Example 140, 1-(2,3-diphenylquinolin-6-yl)-3-phenylurea] |

Continued, molecule first:

| Compound | IC50 (human ACSS2) | IC50 [1] |
| --- | --- | --- |
| CCC(F)(F)CNC(=O)Nc1ccc2nc(C)c(-c3ccccc3F)cc2c1 [Example 110, 1-(2,2-difluorobutyl)-3-(3-(2-fluorophenyl)-2-methylquinolin-6-yl)urea] | < 100 nM | < 100 nM |
| CCCCNC(=O)Nc1ccc2nc(-c3ccccc3)c(-c3ccccc3)cc2c1 [Example 3, 1-butyl-3-(2,3-diphenylquinolin-6-yl)urea] | < 100 nM | < 100 nM |
| CCC(O)CNC(=O)Nc1ccc2nc(C)c(-c3ccccc3Cl)cc2c1 (stereo not shown) [Example 81, 1-(3-(2-chlorophenyl)-2-methylquinolin-6-yl)-3-(2-hydroxybutyl) urea] | < 100 nM | < 100 nM |
| CCC(CNC(=O)Nc1ccc2nc(-c3ccccc3)c(-c3ccccc3F)cc2c1)OC (stereo not shown) [Example 44, 1-(3-(2-fluorophenyl)-2-phenylquinolin-6-yl)-3-(2-methoxybutyl) urea] | < 100 nM | < 100 nM |
| CCC(O)CNC(=O)Nc1ccc2nc(C)c(-c3ccccc3)cc2c1C (stereo not shown) [Example 85, 1-(2,5-dimethyl-3-phenylquinolin-6-yl)-3-(2-hydroxybutyl) urea] | < 100 nM | < 100 nM |
| CCC(O)CNC(=O)Nc1ccc2nc(C3CC3)c(-c3ccccc3)cc2c1 (stereo not shown) [Example 40, 1-(2-cyclopropyl-3-phenylquinolin-6-yl)-3-(2-hydroxybutyl) urea] | ≤ 1000 nM | ≤ 10000 nM |
| CC[C@@H](O)CNC(=O)Nc1ccc2nc(-c3ccccc3)c(C)c(C(=O)Nc3ccn(C)n3)c2c1 [Example 115, (R)-6-(3-(2-Hydroxybutyl)ureido)-3-methyl-N-(1-methyl-1H-pyrazol-3-yl)-2-phenylquinoline-4-carboxamide] | < 100 nM | ≤ 1000 nM |
| CCC(O)CNC(=O)Nc1ccc2nc(-c3ccccn3)c(-c3ccccc3)cc2c1 (stereo not shown) [Example 38, 1-(2-hydroxybutyl)-3-(3-phenyl-2-(pyridin-2-yl)quinolin-6-yl)urea] | < 100 nM | ≤ 1000 nM |
| CCC(O)CNC(=O)Nc1ccc2nc(-c3ccccc3NC(C)=O)c(-c3ccccc3F)cc2c1 (stereo not shown) [Example 51, N-(2-(3-(2-fluorophenyl)-6-(3-(2-hydroxybutyl)ureido)quinolin-2-yl)phenyl)acet-amide] | < 100 nM | < 100 nM |
| CCC(O)CNC(=O)Nc1ccc2nc(-c3ccccc3F)c(-c3ccccc3F)cc2c1 (stereo not shown) [Example 4, 1-(2,3-bis(2-fluorophenyl)quinolin-6-yl)-3-(2-hydroxybutyl) urea] | < 100 nM | < 100 nM |
| CCC(O)CNC(=O)Nc1ccc2nc(C)c(-c3cnn(C)c3)cc2c1 (stereo not shown) [Example 82, 1-(2-hydroxybutyl)-3-(2-methyl-3-(1-methyl-1H-pyrazol-4-yl)quinolin-6-yl)urea] | ≤ 1000 nM | > 10000 nM |
| CCC(O)CNC(=O)Nc1cnc2nc(-c3ccccc3)c(-c3ccccc3)cc2c1 (stereo not shown) [Example 145, 1-(6,7-Diphenyl-1,8-naphthyridin-3-yl)-3-(2-hydroxybutyl)urea] | ≤ 1000 nM | ≤ 1000 nM |
| CC[C@@H](O)CNC(=O)Nc1ccc2nc(-c3ccccc3)c(-c3ccccc3)cc2c1 [Example 2, (R)-1-(2,3-diphenylquinolin-6-yl)-3-(2-hydroxybutyl) urea] | < 100 nM | < 100 nM |
| CCC(O)CNC(=O)Nc1ccc2nc(-c3ccccc3)c(-c3ccccc3)c(C#N)c2c1 (stereo not shown) [Example 70, 1-(4-cyano-2,3-diphenylquino-lin-6-yl)-3-(2-hydroxybutyl) urea] | < 100 nM | < 100 nM |
| CCC(O)CNC(=O)Nc1ccc2nc(-c3ccccc3OC)c(-c3ccccc3F)cc2c1 (stereo not shown) [Example 18, 1-(3-(2-fluorophenyl)-2-(2-methoxyphenyl)quinolin-6-yl)-3-(2-hydroxybutyl) urea] | < 100 nM | < 100 nM |
| CCC(O)CNC(=O)Nc1ccc2nc(-c3ccccc3)c(-c3ccccc3)c(N(C)C)c2c1 (stereo not shown) [Example 91, 1-(4-(dimethylamino)-2,3-diphenylquinolin-6-yl)-3-(2-hydroxybutyl) urea] | < 100 nM | < 100 nM |
| CCC(O)CNC(=O)Nc1ccc2nc(-c3cnn(C)c3)c(-c3ccccc3)cc2c1 (stereo not shown) [Example 43, 1-(2-hydroxybutyl)-3-(2-(1-methyl-1H-pyrazol-4-yl)-3-phenylquinolin-6-yl)urea] | < 100 nM | ≤ 1000 nM |
